Here are results for 8 molecules from ChEMBL document CHEMBL1128203, “Synthesis and structure-activity relationships of acetylcholinesterase inhibitors: 1-benzyl-4-[(5,6-dimethoxy-1-oxoindan-2-yl)methyl]piperidine hydrochloride and related compounds” (J Med Chem, 1995).

This assay addresses T1, Acetylcholinesterase (Mus musculus, UniProt P21836).
T1 sequence (P21836 whole entry): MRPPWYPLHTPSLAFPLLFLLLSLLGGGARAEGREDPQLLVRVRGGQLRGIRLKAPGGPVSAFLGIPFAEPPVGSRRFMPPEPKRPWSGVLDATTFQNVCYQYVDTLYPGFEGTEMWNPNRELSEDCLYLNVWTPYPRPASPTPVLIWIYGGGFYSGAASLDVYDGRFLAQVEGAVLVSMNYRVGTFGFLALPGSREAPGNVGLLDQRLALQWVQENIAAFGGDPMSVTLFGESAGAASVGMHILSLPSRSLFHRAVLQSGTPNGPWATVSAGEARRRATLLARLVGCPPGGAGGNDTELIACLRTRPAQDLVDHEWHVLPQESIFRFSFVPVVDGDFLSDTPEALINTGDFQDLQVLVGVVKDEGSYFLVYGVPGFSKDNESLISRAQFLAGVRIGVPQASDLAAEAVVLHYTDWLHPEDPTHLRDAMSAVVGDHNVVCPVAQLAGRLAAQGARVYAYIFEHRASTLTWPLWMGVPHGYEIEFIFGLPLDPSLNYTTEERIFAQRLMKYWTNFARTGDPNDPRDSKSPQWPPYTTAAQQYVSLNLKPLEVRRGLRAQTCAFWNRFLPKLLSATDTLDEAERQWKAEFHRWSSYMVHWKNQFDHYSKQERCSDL
Description: Inhibitory activity against acetylcholinesterase
Usually IC50 stands for the concentration at which inhibition is half-maximal. Higher therefore signals weaker potency in that assay. Consider `COc1cc2c(cc1OC)C(=O)C(CCCC1CCN(Cc3ccccc3)CC1)C2` (stereo not drawn), for which half-maximal inhibition (IC50) required 0.0015 µM.

Turning to `COc1ccc(OC)c2c1CC(CC1CCN(Cc3ccccc3)CC1)C2=O` (stereo not drawn), the IC50 was 0.036 µM.

Molecule `O=C1c2ccccc2CC1CCC1CCN(Cc2ccccc2)CC1` (stereo not drawn) came in with a 50% inhibitory concentration (IC50) of 0.23 µM.

In turn, `COc1ccc2c(c1OC)C(=O)C(CC1CCN(Cc3ccccc3)CC1)C2` (stereo not drawn) displayed an IC50 of 0.085 µM.

For the molecule `COc1cc2c(cc1OC)C(=O)C(CC1CCN(Cc3cccc(C)c3)CC1)C2` (stereo not drawn), the IC50 was found to be 0.002 µM.

`COc1cc2c(cc1OC)C(=O)/C(=C\C1CCN(Cc3ccccc3)CC1)C2` showed an IC50 of 0.013 µM.

In the case of `COc1ccc2c(c1OC)CC(CC1CCN(Cc3ccccc3)CC1)C2=O` (stereo not drawn), the IC50 stood at 0.02 µM.

On to `CNC(=O)Oc1ccc2c(c1)[C@]1(C)CCN(C)[C@@H]1N2C` [PHYSOSTIGMINE], for which the IC50 is 0.00068 µM.
